# In patent US8765054B2, “Process for treatment of residual nucleic acids present on the surface of laboratory consumables” (EMD Millipore Corporation, priority 2010, dated 2014):
# What was measured:
# [1] = tested on: DNA (E. coli, P. aeruginosa); experiment: Residual free DNA on 1.5 ml polypropylene tubes after treatment, determined by PCR
# Method: (§1) Several consumables consisting of 1.5 ml polypropylene tubes were contaminated in parallel with a known quantity of DNA, RNA or microorganisms. These consumables were then gamma-sterilized (doses from 0 to 60 kGy) or treated with ethylene oxide in gaseous phase. After sterilization, the presence of residual nucleic acids is determined by PCR (for DNA) and TMA (for RNA) and compared with an unsterilized control consumable.
# (§2) Several consumables of the same type as those used in protocol 1 were contaminated with the same known quantity of DNA, RNA or microorganisms. These consumables were then treated by a treatment with hydrogen peroxide made in liquid solution (respectively 3% and 30% H2O2). The hydrogen peroxide is evaporated at the end of the process by virtue of a step of drying under vacuum at a temperature of 60° C. After treatment, the presence of residual nucleic acids was determined by PCR (for DNA) and TMA (for RNA) and compared with an untreated sample.
# [2] = tested on: Germs (E. coli, P. aeruginosa); experiment: Residual DNA contained in microorganisms (germs) on tubes after treatment, determined by PCR; assay type: cell-based
# Method: as §1, §2
# (§3) Several consumables of the same type as those used in protocol 1 were contaminated with the same known quantity of DNA, RNA or microorganisms. A proportion of those consumables was then treated according to the invention with gaseous ethylene oxide followed by the 3% or 30% hydrogen peroxide. A further proportion was treated with gamma radiation instead of with the gaseous ethylene oxide then with hydrogen peroxide. In both cases, the hydrogen peroxide was evaporated by virtue of a vacuum drying step at a temperature of 60° C. After treatment, the presence of residual nucleic acids was determined by PCR (for DNA) and TMA (for RNA) and compared with an untreated sample.
# [3] = tested on: RNA (P. acnes, P. aeruginosa); experiment: Residual free RNA on 1.5 ml polypropylene tubes after treatment, determined by TMA; set-up: key to the marks not given beside the values
# Method: as §1, §2
# [4] = tested on: Germs (P. acnes, P. aeruginosa); experiment: Residual RNA contained in microorganisms (germs) on tubes after treatment, determined by TMA; assay type: cell-based
# Method: as §1, §2, §3
# [5] = Protocol 2, liquid H2O2, minimum time of action 40 min at 60° C.
SMILES,"Effectiveness of the residual nucleic acid treatment, DNA (PCR) ([1]; Protocol 1, free DNA, E. coli, P. aeruginosa, vs unsterilized control)","Effectiveness of the residual nucleic acid treatment, Germs (PCR) ([2]; Protocol 1, DNA in microorganisms, E. coli, P. aeruginosa)","Effectiveness of the residual nucleic acid treatment, RNA (TMA) ([3]; Protocol 1, free RNA, P. acnes, P. aeruginosa, vs unsterilized control)","Effectiveness of the residual nucleic acid treatment, Germs (TMA) ([4]; Protocol 1, RNA in microorganisms, P. acnes, P. aeruginosa)","Effectiveness of the residual nucleic acid treatment, DNA (PCR) [1, 5]","Effectiveness of the residual nucleic acid treatment, Germs (PCR) [2, 5]","Effectiveness of the residual nucleic acid treatment, RNA (TMA) [3, 5]","Effectiveness of the residual nucleic acid treatment, Germs (TMA) [4, 5]"
"C1CO1 [EO, ethylene oxide]",+,+,+++,−,,,,
"OO [H2O2 3%, hydrogen peroxide]",,,,,++,−,++,−
"OO [H2O2 30%, hydrogen peroxide]",,,,,+++,−,+++,−
